Laboratory results taken from ChEMBL document CHEMBL6153159, “Eperisone Analogs, Rescuers of MiaB Defects As a Prokaryotic Homologue of CDKAL1, Suppress Blood Glucose Elevation in Rats” (ACS Med Chem Lett, 2025).
Activity calls are given as the source filed them. No cut-off for these calls is given here.

Test system: Rattus norvegicus
Assay: Hypoglycemic effect in male Wister rat assessed as reduction in blood glucose level at 100 mg/kg, sc measured immediately after oral glucose challenge by OGTT analysis
Type: functional, organism-based
Settings: time 0.0 min

Row | Structure (SMILES) | Activity
1 | COCCOc1ccc(C(=O)C(C)CN2CCCCC2)cc1.Cl (racemic) | inactive
2 | CC(CN1CCCCC1)C(=O)c1ccc(C(C)(C)C)cc1.Cl (racemic) | inactive
3 | CC(C)[C@H]1CC[C@H](C(=O)N[C@H](Cc2ccccc2)C(=O)O)CC1 | Active

Test system: not listed separately
Assay: Drug concentration in Wister rat plasma at 100 mg/kg, sc measured after 60 mins
Type: ADME, organism-based
Settings: Wistar

Row | concentration at 1 h | Structure (SMILES)
4 | > 15 µM | COCCOc1ccc(C(=O)C(C)CN2CCCCC2)cc1.Cl (racemic)
5 | > 15 µM | CC(CN1CCCCC1)C(=O)c1ccc(C(C)(C)C)cc1.Cl (racemic)

Test system: not listed separately
Assay: Drug concentration in Wister rat plasma at 100 mg/kg, po measured after 60 mins
Type: ADME, organism-based
Settings: Wistar

Row | concentration at 1 h | Structure (SMILES)
6 | ≤ 2 µM | COCCOc1ccc(C(=O)C(C)CN2CCCCC2)cc1.Cl (racemic)
7 | ≤ 2 µM | CC(CN1CCCCC1)C(=O)c1ccc(C(C)(C)C)cc1.Cl (racemic)

Test system: Rattus norvegicus
Assay: Antihyperglycemic activity in male Wister rat assessed as reduction in blood glucose level at 100 mg/kg, sc measured at 30 mins after oral glucose challenge by OGTT analysis
Type: functional, organism-based
Settings: not given

Row | Structure (SMILES) | Activity
8 | COCCOc1ccc(C(=O)C(C)CN2CCCCC2)cc1.Cl (racemic) | Active
9 | CC(CN1CCCCC1)C(=O)c1ccc(C(C)(C)C)cc1.Cl (racemic) | Active

Target: T1, Threonylcarbamoyladenosine tRNA methylthiotransferase (Homo sapiens) (UniProt Q5VV42)
T1 sequence (whole entry): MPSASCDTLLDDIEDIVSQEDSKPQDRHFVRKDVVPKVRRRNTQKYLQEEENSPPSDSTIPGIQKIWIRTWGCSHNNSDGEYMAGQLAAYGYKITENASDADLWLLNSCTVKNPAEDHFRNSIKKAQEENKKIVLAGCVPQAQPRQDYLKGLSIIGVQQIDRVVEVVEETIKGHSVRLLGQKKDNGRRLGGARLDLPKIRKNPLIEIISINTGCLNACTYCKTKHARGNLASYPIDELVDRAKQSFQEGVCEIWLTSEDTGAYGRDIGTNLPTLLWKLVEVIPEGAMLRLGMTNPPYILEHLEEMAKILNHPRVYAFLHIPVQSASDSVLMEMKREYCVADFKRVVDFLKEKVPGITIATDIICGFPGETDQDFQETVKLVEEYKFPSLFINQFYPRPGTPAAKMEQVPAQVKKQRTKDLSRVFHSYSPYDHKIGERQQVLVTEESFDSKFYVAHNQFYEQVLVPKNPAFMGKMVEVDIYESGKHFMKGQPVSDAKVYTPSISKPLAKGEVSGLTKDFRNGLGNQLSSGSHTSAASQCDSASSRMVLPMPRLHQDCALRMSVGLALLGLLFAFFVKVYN
Assay: Rescue of mistranslation activity in CDKAL1 (unknown origin) extracted from Escherichia coli harboring MIaB deficient at 10 uM incubated for 1 hr by dual luciferase assay
Settings: not given

Row | Structure (SMILES) | Ratio
10 | CC(CN1CCCCC1)C(=O)c1ccc(Br)cc1 (racemic) | 0.84
11 | CC(CN1CCCCC1)C(=O)c1ccc(C(C)(C)C)cc1.Cl (racemic) | 0.44
12 | CCCc1ccc(C(=O)C(C)CN2CCCCC2)cc1 (racemic) | 1.01
13 | CC(CN1CCCCC1)C(=O)c1cccc(C(C)(C)C)c1 (racemic) | 0.95
14 | CC(CN1CCCCC1)C(=O)c1ccc(C2CCCCC2)cc1 (racemic) | 1.3
15 | CCc1ccc(C(=O)CCN2CCCCC2)cc1 | 0.8
16 | CCc1ccc(C(=O)C(C)CN2CCN(C)CC2)cc1 (racemic) | 0.7
17 | CC(CN1CCCCC1)C(=O)c1ccc(OCCO)cc1 (racemic) | 0.82
18 | CCOc1ccc(C(=O)C(C)CN2CCCCC2)cc1 (racemic) | 0.84
19 | CCC(CN1CCCCC1)C(=O)c1ccc(C(C)(C)C)cc1 (racemic) | 0.73
20 | CCc1cccc(C(=O)C(C)CN2CCCCC2)c1 (racemic) | 0.95
21 | CCCOc1ccc(C(=O)C(C)CN2CCCCC2)cc1 (racemic) | 0.85
22 | CC(CN1CCCCC1)C(=O)c1ccc(F)cc1 (racemic) | 1.08
23 | CCc1ccc(C(=O)C(C)CN2CCCC2)cc1 (racemic) | 1.01
24 | CC(CN1CCCCC1)C(=O)c1ccc(CC(C)(C)C)cc1 (racemic) | 1.05
25 | CC(C)(C)c1ccc(C(=O)CCN2CCCCC2)cc1 | 0.8
26 | CCC(C)(C)c1ccc(C(=O)C(C)CN2CCCCC2)cc1 (racemic) | 0.85
27 | CC(C)COc1ccc(C(=O)C(C)CN2CCCCC2)cc1 (racemic) | 0.88
28 | CC(CN1CCCCC1)C(=O)c1ccc(Cl)cc1 (racemic) | 0.86
29 | CC(CN1CCCCC1)C(=O)c1ccc(O)cc1 (racemic) | 0.71

Further lines, results first:

Row | Ratio | Structure (SMILES)
30 | 1.01 | CCc1ccc(C(=O)C(C)CN2CCCCCC2)cc1 (racemic)
31 | 0.53 | COCCOc1ccc(C(=O)C(C)CN2CCCCC2)cc1.Cl (racemic)
32 | 1.13 | CCc1ccc(C(=O)C(C)CN2CCC(OC)CC2)cc1 (racemic)
33 | 0.93 | CC(C)Oc1ccc(C(=O)C(C)CN2CCCCC2)cc1 (racemic)
34 | 0.66 | CCc1ccc(C(=O)C(C)(C)CN2CCCCC2)cc1
35 | 0.98 | CCc1ccc(C(=O)C(C)CN2CCC(C)CC2)cc1 (racemic)
36 | 0.75 | CCc1ccc(C(=O)C(C)CC2CCNCC2)cc1 (racemic)
37 | 0.71 | CCc1ccc(C(=O)C(C)CN2CCN(CC)CC2)cc1 (racemic)
38 | 0.99 | Cc1ccc(C(=O)C(C)CN2CCCCC2)cc1 (racemic)
39 | 0.98 | CCc1ccccc1C(=O)C(C)CN1CCCCC1 (racemic)
40 | 0.8 | CCCCOc1ccc(C(=O)C(C)CN2CCCCC2)cc1 (racemic)
41 | 1.29 | CCc1ccc(C(=O)C(C)CN2CCOCC2)cc1 (racemic)
42 | 1.16 | CC(C)(C)c1ccc(C(=O)C(CN2CCCCC2)C(=O)O)cc1 (racemic)
43 | 1.04 | CCc1ccc(C(=O)C(C)Cc2ccncc2)cc1 (racemic)
44 | 0.99 | CCc1ccc(C(=O)C(C)CN2CCCCC2)o1 (racemic)
45 | 0.87 | CC(CN1CCCCC1)C(=O)c1ccc(C(F)(F)F)cc1 (racemic)
46 | 0.7 | CCc1ccc(C(=O)C(C)CN2CCCCC2)cc1 (stereo not drawn)
47 | 0.95 | CCc1ccc(C(=O)C(C)CNC2CCCCC2)cc1 (racemic)
48 | 0.63 | CCc1ccc(C(=O)C(C)CN2CCCCC2)s1 (racemic)
49 | 0.78 | CC(CN1CCCCC1)C(=O)c1ccc(C(C)C)cc1 (racemic)
50 | 0.96 | CSCCOc1ccc(C(=O)C(C)CN2CCCCC2)cc1 (racemic)
51 | 1.01 | CCc1ccc(C(=O)C(C)CN2CCC(c3ccccc3)CC2)cc1 (racemic)
52 | 0.97 | CCc1ccc(C(=O)C(C)CN2CCSCC2)cc1 (racemic)

Test system: MIN6
Assay: Induction of insulin secretion in mouse MIN6 cells at 10 uM incubated for 24 hrs by ELISA method
Type: functional, cell-based
Settings: not given

Row | Structure (SMILES) | Activity
53 | COCCOc1ccc(C(=O)C(C)CN2CCCCC2)cc1.Cl (racemic) | Active

Test system: Rattus norvegicus
Assay: Antihyperglycemic activity in male Wister rat assessed as reduction in blood glucose level at 100 mg/kg, sc measured at 60 mins after oral glucose challenge by OGTT analysis
Type: functional, organism-based
Settings: not given

Row | Structure (SMILES) | Activity
54 | COCCOc1ccc(C(=O)C(C)CN2CCCCC2)cc1.Cl (racemic) | Active
55 | CC(CN1CCCCC1)C(=O)c1ccc(C(C)(C)C)cc1.Cl (racemic) | Active

Test system: MIN6
Assay: Induction of insulin secretion in mouse MIN6 cells at 3 uM incubated for 24 hrs by ELISA method
Type: functional, cell-based
Settings: not given

Row | Structure (SMILES) | Activity
56 | CC(CN1CCCCC1)C(=O)c1ccc(C(C)(C)C)cc1.Cl (racemic) | Active

Test system: MIN6
Assay: Cytotoxicity against mouse MIN6 cells at 10 uM by MTT assay relative to control
Type: toxicity, cell-based
Settings: min6, 10 µM

Row | Structure (SMILES) | Activity
57 | COCCOc1ccc(C(=O)C(C)CN2CCCCC2)cc1.Cl (racemic) | 3%
58 | CC(CN1CCCCC1)C(=O)c1ccc(C(C)(C)C)cc1.Cl (racemic) | 4%
